In EPA's ToxValDB 9.5 (doi:10.2903/j.efsa.2009.1390):
Converted amounts (≈) assume the structure as drawn.

What was measured:
[1] = system: Anas platyrhynchos; conditions: acute; oral; unspecified; mortality
[2] = system: Colinus virginianus
[3] = system: Apis mellifera; conditions: acute, mortality
[4] = system: Bibionidae; conditions: chronic/long-term; duration: 28 days
[5] = system: Canidae; conditions: chronic; duration: 1 years; oral; Dog Other; organ weight
[6] = system: Daphnia magna; conditions: chronic/long-term; duration: 21 days; reproduction
[7] = system: Oncorhynchus mykiss
[8] = system: Oryctolagus sp.; conditions: reproduction developmental; body weight
[9] = system: Rattus norvegicus; conditions: acute; oral; F; mortality
[10] = system: Tagia sp.
[11] = system: Typhlodromus pyri; assay: LR50; higher = less toxic; conditions: not reported; mortality

Structure (SMILES) | LD50 [1] [mg/kg-day] | LC50 ([2]; acute, oral, diet, mortality) [mg/kg-day] | LD50 ([3]; dermal) [µg/piece] | LD50 ([3]; oral, unspecified) [µg/piece] | NOEC [4] [mg/L] | NOAEL [5] [mg/kg-day] | NOEC ([2]; reproduction developmental) [mg/kg-day] | NOEC [6] [mg/L] | LC50 ([7]; acute, duration: 96 hours, mortality) [mg/L] | NOEC ([7]; chronic/long-term, duration: 70 days, development) [mg/L] | NOAEL [8] [mg/kg-day] | LD50 [9] [mg/kg-day] | LC50 ([10]; acute, duration: 14 days, mortality) [mg/kg] | NOEC ([10]; chronic/long-term, duration: 8 weeks) [mg/kg] | LR50 [11] [g/ha]
Nc1c(Cl)c(Cl)nc(C(=O)[O-])c1Cl.[K+] [Picloram potassium salt] | > 2250 | > 2200 | – | – | – | – | – | – | – | – | – | – | – | – | –
Nc1c(Cl)c(Cl)nc(C(=O)O)c1Cl [Picloram] | – | – | > 100 | > 74 | 100 | 35 | 65 | 6.79 | 8.8 (≈ 36.4 µM) | 0.55 | 30 | 4010 | > 4480 | 0.167 | > 23.4
